{"source": "patent US10918629B2", "about": "“Method for treating lymphedema” (The Curators of the University of Missouri, priority 2014, dated 2021)", "key": {"[1]": {"tested_on": "dysfunctional lymphatic vessels", "assay": "KATP channel inhibitor / L-type calcium channel agonist on diseased mouse tissue sample", "details": "single agent, FIG. 20", "description": "Glibendamide was then applied to a disease mouse tissue sample. […] The combination of glibenclamide and BayK8644 was then evaluated in a diseased mouse tissue sample. […] BayK8644, along with BayR5417 and FPL64176, are exemplary L-type calcium channel agonists."}, "[2]": {"tested_on": "dysfunctional lymphatic vessels", "assay": "Phenylephrine on dysfunctional mouse lymphatic vessel", "details": "mouse diseased tissue sample, FIG. 18"}, "healthy lymphangion": {"tested_on": "healthy lymphangion", "assay": "Rescue of valve lock in isolated pressurized lymphangions under elevated pressure", "set-up": "species or system mouse", "description": "FIG. 1A and FIG. 1B depict single (FIG. 1A) and multiple (FIG. 1B) lymphangion preparations showing measurements of pressure, diameter and valve position. FIG. 1C and FIG. 1D depict 1-valve preparations used for valve closure (FIG. 1C) and back-leak (FIG. 1D) tests. Color coding applies to pressure, diameter & valve traces shown in all subsequent figures; blue=upstream. black=mid segment, red=downstream. Pin and Pout are controlled with a computer-based servo controller; PL is intraluminal pressure measured with a servo-null micropipette inserted through the wall; diameters are measured with computer-based edge detection^(15); valve positions are determined using densitometry windows as shown^(21,22,69,71).\nStudies were made of single and multiple lymphangions from mice under hydrostatic conditions simulating those experienced in primary and secondary lymphedema. When a progressive rise in outflow pressure is imposed, simulating the pressure load on the vessel in a dependent extremity, the normal response of the vessel is a myogenic constriction to Pout elevation (arrow, described in detail in ref.^(71)) with continued pumping, such that internal pressure generation slightly exceeds Pout during systole of each contraction cycle (*); as a result the output valve opens briefly in systole, allowing partial ejection. […]"}, "[3]": {"tested_on": "human mesenteric lymphatic vessels", "assay": "Isolated pressurized human mesenteric lymphatic vessel segments, response to NE", "details": "33 nM NE", "description": "Recently, 1-, 2- and 3-valve segments of human mesenteric lymphatic vessels obtained following bariatric surgery were studied and their responses to Pout and/or Pin elevation and NE were tested. These are the first such measurements in isolated pressurized human lymphatics. […] Like rat/mouse vessels, the valves are biased to be open in the absence of a pressure gradient (arrowhead). Valve gating curves or tests for valve lock were unable to be performed because the vessels were too large to be studied on the microscope used with the pressure controller. However, it was encouraging to find that every response tested was similar to those of rat/mouse vessels."}, "mouse popliteal vessel": {"tested_on": "mouse popliteal vessel", "assay": "Contractile function of isolated lymphatic vessels with impaired contractility", "description": "FIG. 9A, FIG. 9B, FIG. 9C and FIG. 9D depict the effect of norepinephrine (NE) on vessels with impaired contractility. […] FIG. 9C depicts that NE enhanced contractions in 13/14 vessels with impaired contractions and (FIG. 9D) induced >3.5-fold increase in FREQ (contraction frequency) and 2-fold increase in AMP (contraction amplitude) in a subset 8 vessels that had control contractions.\nData has been obtained to support the contention that NE has the potential not only to relieve valve lock (FIG. 3C) but also to enhance pump function. […] It is presumed that NE works by enhancing inotropy under these conditions and that it may be particularly effective in vessels fatigued or in partial pump failure from chronic pressure overload."}, "[4]": {"details": "subset of 8 vessels that had control contractions"}}, "note": "Where “and” joins values, the source holds several entries; their conditions need not be identical. Equal entries are not always repeated. Entries after “also recorded” stand apart in the source; their conditions may differ."}
{"smiles": "COc1ccc(Cl)cc1C(=O)NCCc1ccc(S(=O)(=O)NC(=O)NC2CCCCC2)cc1", "note": "[glibenclamide]", "values": [{"measurement": "effect on contractions and pumping functions", "setting": "[1]", "value": "improves/restores normal contractions and pumping functions"}]}
{"smiles": "CNC[C@H](O)c1cccc(O)c1", "note": "[PE, phenylephrine]", "values": [{"measurement": "effect on contraction and pumping", "setting": "[2]", "value": "restored contraction and pumping; also recorded: improves/restores normal contractions and pumping functions"}]}
{"smiles": "NC[C@H](O)c1ccc(O)c(O)c1", "note": "[NE, norepinephrine]", "values": [{"measurement": "relief of valve lock", "setting": "healthy lymphangion; pressure remains elevated, dose that counteracts the loss of tone but does not fuse contractions", "value": "relieves valve lock; also recorded: reverses valve lock; also recorded: can be rescued"}, {"measurement": "working range of a lymphangion pumping against an output load", "setting": "healthy lymphangion; prophylactic application, vessel not yet failed", "value": "can be extended"}, {"measurement": "effect on tone", "setting": "[3]", "value": "increase in tone"}, {"measurement": "increase in AMP", "setting": "[3]", "value": "~50", "unit": "%"}, {"measurement": "increase in FREQ", "setting": "[3]", "value": "~2", "unit": "fold"}, {"measurement": "dose-dependent effect on frequency, tone and inotropy", "setting": "mouse popliteal vessel; 10^−8 to 10^−7M, FIG. 9", "value": "increases in frequency, tone and inotropy"}, {"measurement": "effect on contractions and pumping of vessels with impaired contractility", "setting": "mouse popliteal vessel; fatigued or weakly contracting vessels", "value": "induce tone and spontaneous contractions; also recorded: induced robust contractions that persisted when pressure was elevated; also recorded: restores contraction and pumping; also recorded: induces spontaneous contractions; also recorded: consistent, large-amplitude contractions"}, {"measurement": "likelihood of having spontaneous contractions", "setting": "mouse popliteal vessel; preliminary analysis, FIG. 9C", "value": "doubles"}, {"measurement": "increase in AMP (contraction amplitude)", "setting": "mouse popliteal vessel; [4]", "value": 2, "unit": "fold"}, {"measurement": "increase in FREQ (contraction frequency)", "setting": "mouse popliteal vessel; [4]", "value": "3.5 fold and > 3.5 fold"}, {"measurement": "vessels with enhanced contractions", "setting": "mouse popliteal vessel; vessels with impaired contractions, knock-out mouse developing hindlimb edema", "value": "13/14"}]}
